Data as given in patent US12459932B2, “KIF18A inhibitors” (AMGEN INC., priority 2018, dated 2025).
Counter-ions that a name gives are not always drawn.

Biological target: T1, Recombinant human KIF18A (1-467 His-tagged) (Homo sapiens, UniProt Q8NI77)
T1 construct: Recombinant human KIF18A (1-467 His-tagged) protein; His
Experiment: KIF18A Enzyme Assay: microtubule-stimulated ATPase activity (ADP-Glo)
Type: biochemical
Conditions: 30 nM KIF18A, 30 μg/mL pig microtubules, ATP 75 μM (Km), ADP-Glo luminescence
Protocol: KIF18A Enzyme Assay: Microtubule-stimulated ATPase activity assay is used to measure KIF18A enzyme activity after treatment with compound. Compounds were 2-fold serially diluted in DMSO (Sigma Inc) over 22-point concentration range. […] The assay measures ADP formed from the ATPase reaction. […] Read luminescence using EnVision microplate reader with ultra-luminescence module (Perkin Elmer Inc). Concentration-response curve-fitting and IC50 determination was performed using Genedata Screener Software (Standard 15.0.1, Genedata Inc) with a four-parameter logistic regression fit model.

T1 sequence (Q8NI77 1-467): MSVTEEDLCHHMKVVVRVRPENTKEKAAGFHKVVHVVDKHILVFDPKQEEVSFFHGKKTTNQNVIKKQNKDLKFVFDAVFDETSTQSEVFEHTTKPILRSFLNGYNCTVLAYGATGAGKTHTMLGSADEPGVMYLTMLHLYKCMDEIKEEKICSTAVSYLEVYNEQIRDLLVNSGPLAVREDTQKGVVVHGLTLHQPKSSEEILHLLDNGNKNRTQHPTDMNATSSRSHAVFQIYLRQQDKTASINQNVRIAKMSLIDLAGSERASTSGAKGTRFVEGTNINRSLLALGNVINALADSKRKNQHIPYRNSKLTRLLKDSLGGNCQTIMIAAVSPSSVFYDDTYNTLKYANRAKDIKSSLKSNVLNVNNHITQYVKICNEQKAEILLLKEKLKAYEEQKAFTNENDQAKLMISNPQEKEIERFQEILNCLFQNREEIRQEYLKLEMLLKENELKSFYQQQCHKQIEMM
T1 sequence (P02550 whole entry partner): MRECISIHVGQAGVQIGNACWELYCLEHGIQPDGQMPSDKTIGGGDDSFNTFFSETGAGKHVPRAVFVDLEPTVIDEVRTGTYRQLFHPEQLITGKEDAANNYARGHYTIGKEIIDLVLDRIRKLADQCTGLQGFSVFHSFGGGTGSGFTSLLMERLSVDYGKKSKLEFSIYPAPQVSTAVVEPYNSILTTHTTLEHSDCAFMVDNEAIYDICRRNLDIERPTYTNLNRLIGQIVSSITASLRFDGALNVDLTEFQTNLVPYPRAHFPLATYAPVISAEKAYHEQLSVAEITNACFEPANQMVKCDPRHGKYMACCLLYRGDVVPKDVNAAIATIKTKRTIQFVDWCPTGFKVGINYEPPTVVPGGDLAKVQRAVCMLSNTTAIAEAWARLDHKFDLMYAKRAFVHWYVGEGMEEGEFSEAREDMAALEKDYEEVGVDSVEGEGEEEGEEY
T1 sequence (P02554 whole entry partner): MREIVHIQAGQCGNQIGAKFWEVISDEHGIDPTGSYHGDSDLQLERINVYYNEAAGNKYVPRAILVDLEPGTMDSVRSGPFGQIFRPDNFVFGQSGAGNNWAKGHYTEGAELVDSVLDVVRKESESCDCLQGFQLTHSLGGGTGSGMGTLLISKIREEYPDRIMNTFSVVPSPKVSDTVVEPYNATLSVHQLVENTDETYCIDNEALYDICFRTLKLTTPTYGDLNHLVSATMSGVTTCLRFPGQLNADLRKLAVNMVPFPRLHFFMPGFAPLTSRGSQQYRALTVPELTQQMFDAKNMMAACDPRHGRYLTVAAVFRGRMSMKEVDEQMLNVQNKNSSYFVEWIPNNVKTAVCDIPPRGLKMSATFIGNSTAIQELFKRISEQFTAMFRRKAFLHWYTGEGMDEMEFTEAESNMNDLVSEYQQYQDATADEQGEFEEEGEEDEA

SMILES | IC50 [nM]
CCC(CO)NS(=O)(=O)c1ccc(C(=O)Nc2cccc(N3CCO[C@H](C)C3)n2)c(N2CCC3(CC2)CC3)c1 (stereo partly drawn) [Example 1-9, 4-(N-(1-Hydroxybutan-2-yl)sulfamoyl)-N-(6-((R)-2-methylmorpholino)pyridin-2-yl)-2-(6-azaspiro[2.5]octan-6-yl)benzamide] | 120
O=C(Nc1cccc(OCCC(F)(F)F)n1)c1ccc(S(=O)(=O)C2CNC2)cc1N1CCC2(CC1)CC2 [Example 31, 4-(Azetidin-3-ylsulfonyl)-2-(6-azaspiro[2.5]octan-6-yl)-N-(6-(3,3,3-trifluoropropoxy)pyridin-2-yl)benzamide trifluoroacetate] | 55
C[C@@H]1CN(c2cccc(NC(=O)c3ccc(S(=O)(=O)N4CC(C)(C)C4)cc3N3CCC4(CC3)CC4)n2)CCO1 [Example 1-11, (R)-4-((3,3-Dimethylazetidin-1-yl)sulfonyl)-N-(6-(2-methylmorpholino)pyridin-2-yl)-2-(6-azaspiro[2.5]octan-6-yl)benzamide] | 566
CC1(S(=O)(=O)Nc2ccc(C(=O)Nc3cccc(N4CC(F)(F)C4)n3)c(N3CCC4(CC3)CC4)c2)CC1 [Example 3-18, N-(6-(3,3-Difluoroazetidin-1-yl)pyridin-2-yl)-4-((1-methylcyclopropane)-1-sulfonamido)-2-(6-azaspiro[2.5]octan-6-yl)benzamide] | 48
CC(C)(C)NS(=O)(=O)c1cccc(NC(=O)c2ccc(S(C)(=O)=O)cc2N2CCC3(CC2)CC3)n1 [Example 4-8, N-(6-(N-(tert-Butyl)sulfamoyl)pyridin-2-yl)-4-(methylsulfonyl)-2-(6-azaspiro[2.5]octan-6-yl)benzamide] | 76
C[C@@H]1CN(c2cc(C#N)cc(NC(=O)c3ccc(NS(=O)(=O)CCO)cc3N3CCC4(CC3)CC4)n2)CCO1 [Example 25, (R)-N-(4-Cyano-6-(2-methylmorpholino)pyridin-2-yl)-4-((2-hydroxyethyl)sulfonamido)-2-(6-azaspiro[2.5]octan-6-yl)benzamide] | 41
CS(=O)(=O)c1ccc(C(=O)Nc2cccc(C3CC3)n2)c(N2CCC3(CC2)CC3)c1 [Example 4-4, N-(6-Cyclopropylpyridin-2-yl)-4-(methylsulfonyl)-2-(6-azaspiro[2.5]octan-6-yl)benzamide] | 180
N#Cc1ccc(NC(=O)c2ccc(NS(=O)(=O)CCO)cc2N2CCC3(CC2)CC3)nc1N1CCC(F)(F)CC1 [Example 21, N-(5-Cyano-6-(4,4-difluoropiperidin-1-yl)pyridin-2-yl)-4-((2-hydroxyethyl)sulfonamido)-2-(6-azaspiro[2.5]octan-6-yl)benzamide] | 25
CC(C)(C)NS(=O)(=O)c1ccc(C(=O)Nc2cccc(N3CCC[C@H](O)C3)n2)c(N2CCC3(CC2)CC3)c1 [Example 3-3, (S)-4-(N-(tert-Butyl)sulfamoyl)-N-(6-(3-hydroxypiperidin-1-yl)pyridin-2-yl)-2-(6-azaspiro[2.5]octan-6-yl)benzamide] | 96
Cc1cc(NC(=O)c2ccc(NS(=O)(=O)CCO)cc2N2CCC3(CC2)CC3)nc(N2CCC(F)(F)CC2)c1 [Example 6, N-(6-(4,4-Difluoropiperidin-1-yl)-4-methylpyridin-2-yl)-4-((2-hydroxyethyl)sulfonamido)-2-(6-azaspiro[2.5]octan-6-yl)benzamide] | 47
Cc1cc(NC(=O)c2ccc(NS(=O)(=O)CCO)cc2N2CCC3(CC2)CC3)nc(OCCC(F)(F)F)c1 [Example 17, 4-((2-Hydroxyethyl)sulfonamido)-N-(4-methyl-6-(3,3,3-trifluoropropoxy)pyridin-2-yl)-2-(6-azaspiro[2.5]octan-6-yl)benzamide] | 24
CC1(S(=O)(=O)Nc2ccc(C(=O)Nc3cccc(N4CCC(F)(F)C4)n3)c(N3CCC4(CC3)CC4)c2)CC1 [Example 3-5, N-(6-(3,3-Difluoropyrrolidin-1-yl)pyridin-2-yl)-4-((1-methylcyclopropane)-1-sulfonamido)-2-(6-azaspiro[2.5]octan-6-yl)benzamide] | 45
C[C@@H]1CN(c2cccc(NC(=O)c3ccc(NS(=O)(=O)C4(C)CC4)cc3N3CCC4(CC3)CC4)n2)CCO1 [Example 4-14, (R)-4-((1-Methylcyclopropane)-1-sulfonamido)-N-(6-(2-methylmorpholino)pyridin-2-yl)-2-(6-azaspiro[2.5]octan-6-yl)benzamide] | 66
CC1(F)CCN(c2cccc(NC(=O)c3ccc(NS(=O)(=O)C4(C)CC4)cc3N3CCC4(CC3)CC4)n2)CC1 [Example 3-13, N-(6-(4-Fluoro-4-methylpiperidin-1-yl)pyridin-2-yl)-4-((1-methylcyclopropane)-1-sulfonamido)-2-(6-azaspiro[2.5]octan-6-yl)benzamide] | 373
CC1(S(=O)(=O)Nc2ccc(C(=O)Nc3cccc(N4CCCCC4)n3)c(N3CCC4(CC3)CC4)c2)CC1 [Example 3-17, 4-((1-Methylcyclopropane)-1-sulfonamido)-N-(6-(piperidin-1-yl)pyridin-2-yl)-2-(6-azaspiro[2.5]octan-6-yl)benzamide] | 34
O=C(Nc1cccc(OCCC(F)(F)F)n1)c1ccc(S(=O)(=O)NCCO)cc1N1CCC2(CC1)CC2 [Example 1, 4-(N-(2-Hydroxyethyl)sulfamoyl)-2-(6-azaspiro[2.5]octan-6-yl)-N-(6-(3,3,3-trifluoropropoxy)pyridin-2-yl)benzamide] | 12
CS(=O)(=O)Cc1ccc(C(=O)Nc2cccc(N3CCC[C@@H](O)C3)n2)c(N2CCC3(CC2)CC3)c1 [Example 4, (R)-N-(6-(3-hydroxypiperidin-1-yl)pyridin-2-yl)-4-((methylsulfonyl)methyl)-2-(6-azaspiro[2.5]octan-6-yl)benzamide] | 94
C[C@@H]1CN(c2cccc(NC(=O)c3ccc(S(=O)(=O)C(C)(C)CO)cc3N3CCC4(CC3)CC4)n2)CCO1 [Example 2-5, (R)-4-((1-Hydroxy-2-methylpropan-2-yl)sulfonyl)-N-(6-(2-methylmorpholino)pyridin-2-yl)-2-(6-azaspiro[2.5]octan-6-yl)benzamide] | 51

Results, then the molecule that gave them:

IC50 [nM] | SMILES
76 | C[C@@H]1CN(c2cccc(NC(=O)c3ccc(N4CCCS4(=O)=O)cc3N3CCC4(CC3)CC4)n2)CCO1 [Example 7-3, (R)-4-(1,1-Dioxidoisothiazolidin-2-yl)-N-(6-(2-methylmorpholino)pyridin-2-yl)-2-(6-azaspiro[2.5]octan-6-yl)benzamide]
23 | O=C(Nc1cccc(N2CCC(F)(F)CC2)n1)c1ccc(NS(=O)(=O)CCO)cc1N1CCC2(CC1)CC2 [Example 7-26, N-(6-(4,4-Difluoropiperidin-1-yl)pyridin-2-yl)-4-((2-hydroxyethyl)sulfonamido)-2-(6-azaspiro[2.5]octan-6-yl)benzamide]
18 | Cc1cc(NC(=O)c2ccc(NS(=O)(=O)[C@H](C)CO)cc2N2CCC3(CC2)CC3)nc(N2CCOCC2)c1 (single isomer, unassigned) [Example 9-13]
38 | Cc1cc(NC(=O)c2ccc(NS(=O)(=O)[C@H](C)CO)cc2N2CCC3(CC2)CC3)nc(N2CCO[C@H](C)C2)c1 (single isomer, unassigned) [Example 9-11]
36 | O=C(Nc1cccc(N2CCOCC2)n1)c1ccc(NS(=O)(=O)CCO)cc1N1CCC2(CC1)CC2 [Example 7-20, 4-((2-Hydroxyethyl)sulfonamido)-N-(6-morpholinopyridin-2-yl)-2-(6-azaspiro[2.5]octan-6-yl)benzamide]
48 | C[C@@H]1CN(c2cccc(NC(=O)c3ccc(NS(=O)(=O)CF)cc3N3CCC4(CC3)CC4)n2)CCO1 [Example 7-38, (R)-4-((Fluoromethyl)sulfonamido)-N-(6-(2-methylmorpholino)pyridin-2-yl)-2-(6-azaspiro[2.5]octan-6-yl)benzamide]
59 | Cc1cc(NC(=O)c2ccc(NS(=O)(=O)CC3CC3)cc2N2CCC3(CC2)CC3)nc(N2CC(F)(F)C2)c1 [Example 7-31, 4-((Cyclopropylmethyl)sulfonamido)-N-(6-(3,3-difluoroazetidin-1-yl)-4-methylpyridin-2-yl)-2-(6-azaspiro[2.5]octan-6-yl)benzamide]
51 | CC(Oc1cccc(NC(=O)c2ccc(NS(=O)(=O)CCO)cc2N2CCC3(CC2)CC3)n1)C1CC1 (stereo not shown) [Example 16-1, N-(6-(1-Cyclopropylethoxy)pyridin-2-yl)-4-((2-hydroxyethyl)sulfonamido)-2-(6-azaspiro[2.5]octan-6-yl)benzamide]
41 | C[C@@H](CO)S(=O)(=O)Nc1ccc(C(=O)Nc2cccc(N3CCC(F)(F)CC3)n2)c(N2CCC3(CC2)CC3)c1 (single isomer, unassigned) [Example 9-9]
16 | C[C@H](CO)S(=O)(=O)Nc1ccc(C(=O)Nc2cccc(OCCC(F)(F)F)n2)c(N2CCC3(CC2)CC3)c1 (single isomer, unassigned) [Example 8-1]
42 | Cc1cc(NC(=O)c2ccc(S(=N)(=O)C3CC3)cc2N2CCC3(CC2)CC3)nc(N2CCC(F)(F)CC2)c1 (stereo in doubt) [Example 30-2, 2-(6-Azaspiro[2.5]octan-6-yl)-4-(R-cyclopropylsulfonimidoyl)-N-(6-(4,4-difluoro-1-piperidinyl)-4-methyl-2-pyridinyl)benzamide]
17 | Cc1cc(NC(=O)c2ccc(NS(=O)(=O)CCO)cc2N2CCC3(CC2)CC3)nc(N2CCOCC2)c1 [Example 7-17, 4-((2-Hydroxyethyl)sulfonamido)-N-(4-methyl-6-morpholinopyridin-2-yl)-2-(6-azaspiro[2.5]octan-6-yl)benzamide]
57 | C[C@@H]1CN(c2cccc(NC(=O)c3ccc(NS(=O)(=O)C4(CO)CC4)cc3N3CCC4(CC3)CC4)n2)CCO1 [Example 10-1, (R)-4-((1-(Hydroxymethyl)cyclopropane)-1-sulfonamido)-N-(6-(2-methylmorpholino)pyridin-2-yl)-2-(6-azaspiro[2.5]octan-6-yl) benzamide]
